Among the test systems are SNB-19; ACHN; UACC-62; NCI-H460; IGROV-1; UO-31; Malme-3M; SK-OV-3; EKVX; MDA-N; 786-0; T47D; MOLT-4; SK-MEL-2; HCT-116; SN12C; HCC 2998; NCI-H226; SR; BT-549.
Common to all, as to test: DTP human tumour cell line panel, 48 h

What is called GI50 is the concentration that inhibits growth by half.

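Five compound concentrations were applied to cells in 96-well plates for 48 hours; endpoints were derived by simple linear interpolation of the resulting dose-response curve. GI50 = concentration required for 50% inhibition of growth.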 The source made the active and inactive calls. Cut-off read from the data, not from the text of the source: active = GI50 up to about 1.1 µM and inactive = higher.

For `O=C(O)c1cnccc1-c1cc(=O)[nH]n1-c1ccccc1`, the GI50 in the assay on SNB-19 was > 100 µM (inactive); with ACHN, 35.8 µM (inactive); with UACC-62 it was 17.4 µM (inactive); in the assay with NCI-H460, 35 µM (inactive); with IGROV-1, > 21.3 µM (inactive); in the assay on UO-31, 27.9 µM (inactive). The GI50 in the assay with Malme-3M was > 100 µM (inactive); in the assay on SK-OV-3, > 100 µM (inactive); in the assay on EKVX, > 53.1 µM (inactive); in the assay with MDA-N, 41.8 µM (inactive); in the assay on 786-0, > 79.6 µM (inactive); with T47D it was 23.5 µM (inactive). Also, the GI50 with MOLT-4 was 13.9 µM (inactive); in the assay with SK-MEL-2, > 63.2 µM (inactive); in the assay on HCT-116, 51.8 µM (inactive); in the assay on SN12C it was > 87.7 µM (inactive); in the assay on HCC 2998, 25 µM (inactive); with NCI-H226, > 100 µM (inactive). In addition, the GI50 in the assay on SR was 11.3 µM (inactive); in the assay on BT-549, > 80.5 µM (inactive).
Turning to `O=C(OCC1OC2OC(c3ccccc3)(n3ccc4c([N+](=O)[O-])ccnc43)OC2C1OC(=O)c1ccccc1)c1ccccc1` (stereo not given), the GI50 in the assay with SNB-19, in the assay on ACHN, with UACC-62, in the assay with NCI-H460, with IGROV-1 and with UO-31 was > 100 µM (inactive) throughout. Further, the GI50 with Malme-3M is > 100 µM (inactive); with SK-OV-3, > 100 µM (inactive); in the assay on EKVX, > 100 µM (inactive); in the assay with MDA-N, > 100 µM (inactive); in the assay with 786-0, > 100 µM (inactive); in the assay on T47D it was 35 µM (inactive). Besides, the GI50 in the assay with MOLT-4, in the assay with SK-MEL-2, with HCT-116, in the assay with SN12C, in the assay on HCC 2998 and in the assay on NCI-H226 was > 100 µM (inactive) each time. Moreover, the GI50 with SR and with BT-549 was > 100 µM (inactive) throughout.
For the molecule `CN(C)CCNc1ccc(C(=O)NCCCN(C)CCCNC(=O)c2ccc(NCCN(C)C)c3c(=O)c4ccccc4[nH]c23)c2[nH]c3ccccc3c(=O)c12`, the concentration for 50% growth inhibition (GI50) with SNB-19 is < 0.0118 µM (active); in the assay on ACHN it was 0.0402 µM (active); with UACC-62, 0.0349 µM (active); in the assay on NCI-H460 it was < 0.0163 µM (active); with IGROV-1, < 0.01 µM (active); in the assay on UO-31 it was 1.27 µM (inactive). Moreover, the GI50 in the assay on Malme-3M is 0.0467 µM (active); with SK-OV-3, 0.109 µM (active); with EKVX, 0.478 µM (active); with MDA-N it was 0.0346 µM (active); in the assay on 786-0 it was < 0.0119 µM (active); in the assay with T47D it was 0.119 µM (active). The GI50 in the assay on MOLT-4 is < 0.01 µM (active); in the assay with SK-MEL-2, 0.0489 µM (active); in the assay on HCT-116, < 0.01 µM (active); in the assay with SN12C, < 0.01 µM (active); in the assay on HCC 2998, 0.0246 µM (active); with NCI-H226, 0.0199 µM (active). Further, the GI50 with SR is < 0.01 µM (active); in the assay on BT-549, 0.144 µM (active).
On to `CCOC(=O)C(Cc1ccc(OC(=O)OC(C)(C)C)cc1)NC(=O)OC(C)(C)C` (stereo not given), for which the GI50 in the assay on SNB-19 is > 100 µM (inactive); with ACHN, 74.1 µM (inactive); with UACC-62 it was > 100 µM (inactive); in the assay with NCI-H460, > 100 µM (inactive); with IGROV-1 it was 50.1 µM (inactive); in the assay with UO-31, 54.3 µM (inactive). Besides, the GI50 was > 100 µM (inactive) in the assay on Malme-3M; > 100 µM (inactive) in the assay on SK-OV-3; > 100 µM (inactive) in the assay with EKVX; > 100 µM (inactive) in the assay on MDA-N; 34.8 µM (inactive) in the assay on 786-0; 29 µM (inactive) in the assay with T47D. For the same molecule, the GI50 in the assay with MOLT-4 was 19.7 µM (inactive); with SK-MEL-2 it was > 100 µM (inactive); in the assay with HCT-116 it was 78 µM (inactive); with SN12C, 44.8 µM (inactive); in the assay with HCC 2998 it was 30.3 µM (inactive); in the assay with NCI-H226 it was > 100 µM (inactive). Moreover, the GI50 is 26.4 µM (inactive) in the assay on SR and > 100 µM (inactive) in the assay on BT-549.

These data come from ChEMBL document CHEMBL1201862, “PubChem BioAssay data set” (2004).
